Patent US5001058A (Bristol-Myers Company, priority 1989, dated 1991)
Values after ≈ are worked out from the molar mass of the structure shown. Like-named read-outs stand apart in the source and are kept apart here.

How the values were obtained:
[1] = test system: Staphylococcus aureus 209P; assay: Antimicrobial activity, two-fold serial dilution in agar media; assay type: cell-based; conditions: Nutrient agar
[2] = test system: Staphylococcus aureus Smith; assay: as above; assay type: cell-based; conditions: Nutrient agar
[3] = test system: Staphylococcus aureus A20234; assay: as above; assay type: cell-based; conditions: Nutrient agar
[4] = test system: Staphylococcus epidermidis D153; assay: as above; assay type: cell-based; conditions: Nutrient agar
[5] = test system: Streptococcus pyogenes A20201; assay: as above; assay type: cell-based; conditions: Nutrient agar
[6] = test system: Micrococcus luteus PCI 1001; assay: as above; assay type: cell-based; conditions: PCI1001, Nutrient agar
[7] = test system: Bacillus subtilis PCI 219; assay: as above; assay type: cell-based; conditions: PCI219, Nutrient agar
[8] = test system: Preopionibacterium acnes A21933; assay: as above; assay type: cell-based; conditions: Gifu anaerobic medium agar
[9] = test system: B16-F10 (murine melanoma) cells; assay: In vitro cytotoxicity, neutral red staining; assay type: cell-based; conditions: Mus musculus; B16-F10, 72 hours, 37° C.
[10] = test system: Moser (human colorectal carcinoma) cells; assay: In vitro cytotoxicity, neutral red staining; assay type: cell-based
[11] = test system: HCT-116 (human colon carcinoma) cells; assay: In vitro cytotoxicity, neutral red staining; assay type: cell-based; conditions: HCT-116, 72 hours, 37° C.
[12] = test system: DNA synthesis in L1210 leukemia cells; assay: Inhibition of DNA synthesis in L1210 leukemia cells (labelled precursor incorporation); assay type: cell-based, murine; conditions: Mus musculus, 3H-thymidine, 15 min with test material, then 60 min
[13] = test system: RNA synthesis in L1210 leukemia cells; assay: Inhibition of RNA synthesis in L1210 leukemia cells (labelled precursor incorporation); assay type: cell-based, murine; conditions: Mus musculus, 14C-uridine, 15 min with test material, then 60 min
[14] = test system: Protein synthesis in L1210 leukemia cells; assay: Inhibition of protein synthesis in L1210 leukemia cells (labelled precursor incorporation); assay type: cell-based, murine; conditions: Mus musculus, 3H-leucine, 15 min with test material, then 60 min
Solubility = assay type: physicochemical
gram-positive bacteria = assay: Antimicrobial activity, two-fold serial dilution in agar media (summary); assay type: cell-based; conditions: in words
gram-negative bacteria = assay: as above; assay type: cell-based; conditions: in words
anaerobic bacteria = assay: as above; assay type: cell-based; conditions: in words
Yeast and fungi = assay: as above; assay type: cell-based; conditions: in words
[15] = test system: murine and human tumor cells; assay: In vitro cytotoxicity against tumor cells (summary); assay type: cell-based
[16] = test system: macromolecule (DNA, RNA and protein) synthesis in L1210 murine leukemia cells; assay: Inhibitory effects on macromolecule (DNA, RNA and protein) synthesis (summary); assay type: cell-based; conditions: in words
[17] = test system: Streptococcus faecalis A9612; assay: microbe, parasite or virus in culture; conditions: Enterococcus faecalis
Escherichia coli NIHJ = assay: microbe, parasite or virus in culture
[18] = test system: Klebsiella pneumoniae D11; assay: microbe, parasite or virus in culture
[19] = test system: Pseudomonas aeruginosa A9930; assay: microbe, parasite or virus in culture
Proteus vulgalis A9436 = assay: microbe, parasite or virus in culture
Proteus mirabilis A9554 = assay: microbe, parasite or virus in culture
[20] = test system: Bacteroides fragilis A22035; assay: microbe, parasite or virus in culture
[21] = test system: Clostridium difficile A21675; assay: microbe, parasite or virus in culture; conditions: Clostridioides difficile
[22] = test system: Clostridium perfringens A9635; assay: microbe, parasite or virus in culture
[23] = test system: Candida albicans IAM 4888; assay: microbe, parasite or virus in culture; conditions: IAM4888
[24] = test system: Cryptococcus neoformans D49; assay: microbe, parasite or virus in culture
[25] = test system: Aspergillus fumigatus IAM 2530; assay: microbe, parasite or virus in culture; conditions: IAM2530
[26] = test system: Trichophyton mentagrophytes D155; assay: microbe, parasite or virus in culture
[27] = in words, literature; cited from earlier work

Cc1cc2c(c3oc(C(O)(CO)C4CO4)cc(=O)c13)C(=O)c1c(O)cccc1C2=O (stereo not shown) [BU-3839T] showed an MIC [1] of 0.05 µg/mL (≈ 0.122 µM), an MIC [2] of 0.05 µg/mL (≈ 0.122 µM) and an MIC [3] of 0.05 µg/mL (≈ 0.122 µM). It also gave an MIC [4] of 0.1 µg/mL (≈ 0.245 µM), an MIC [5] of 0.1 µg/mL (≈ 0.245 µM) and an MIC [6] of 0.025 µg/mL (≈ 0.0612 µM). For the same compound, the MIC [7] was 0.05 µg/mL (≈ 0.122 µM), the MIC [8] was 0.8 µg/mL (≈ 1.96 µM) and the IC50 [9] was 0.9 ng/mL (≈ 0.0022 µM). It also gave an IC50 ([10]; Moser, 72 hours, 37° C., read-out: IC50) of 0.0046 µg/mL (≈ 0.0113 µM), an IC50 [11] of 2.6 ng/mL (≈ 0.00637 µM) and an IC50 [12] of 0.013 µg/mL (≈ 0.0318 µM). For the same compound, the IC50 [13] was 0.029 µg/mL (≈ 0.071 µM), the IC50 [14] was 0.039 µg/mL (≈ 0.0955 µM) and the Solubility (Solubility; N,N-dimethylformamide) was “soluble”. For the same compound, the Solubility (Solubility; alkaline water) was “slightly soluble”, the Solubility (Solubility; chloroform) was “slightly soluble” and the Solubility (Solubility; dimethyl sulfoxide) was “soluble”. The Solubility (Solubility; methylene chloride) was “slightly soluble”, the Solubility (Solubility; other organic solvents) was “almost insoluble” and the Solubility (Solubility; water) was “almost insoluble”. For the same compound, the “Inhibitory activity against gram-positive bacteria” value (gram-positive bacteria) was “remarkable inhibitory activity”, the “Activity against gram-negative bacteria” value (gram-negative bacteria) was “relatively weak activity” and the “Activity against anaerobic bacteria” value (anaerobic bacteria) was “relatively weak activity”. For the same compound, the “Susceptibility of yeast and fungi” value (Yeast and fungi) was “not susceptible”, the “Cytotoxicity superior to mitomycin C in terms of IC50 value” ([15]; approximately, ratio to mitomycin C) was 300-600 times and the “Cytotoxicity against tumor cells” value ([15]; in words) was “quite potent”. The “Inhibition of macromolecule synthesis” value [16] was “inhibited DNA, RNA and protein synthesis non-specifically”, the “Body weight change on day 4” value (P388 leukemia; 0.008 mg/kg/day, QD × 3, ip) was “+1.0 g” and the “MST (median survival time)” value (P388 leukemia; 0.008 mg/kg/day, QD × 3, ip) was 11.0 days. The T/C (P388 leukemia; 0.008 mg/kg/day, QD × 3, ip, T/C ≥ […] significant) was 110%, the “MST (median survival time)” value (P388 leukemia; 0.5 mg/kg/day, QD × 3, ip) was 14.5 days and the “MST (median survival time)” value (P388 leukemia; 1 mg/kg/day, QD × 3, ip) was 7.0 days. The “maximum T/C value” (P388 leukemia; P388 leukemia, ip, QD×3) was 145%, the “Chemotherapeutic activity against P388 leukemia” value (P388 leukemia; in words) was “relatively broad and moderate chemotherapeutic activity” and the MIC [17] was 0.4 µg/mL (≈ 0.98 µM). The MIC (Escherichia coli NIHJ) was > 50 µg/mL, the MIC [18] was 6.3 µg/mL (≈ 15.4 µM) and the MIC [19] was > 50 µg/mL. For the same compound, the MIC (Proteus vulgalis A9436) was 6.3 µg/mL (≈ 15.4 µM), the MIC (Proteus mirabilis A9554) was > 50 µg/mL and the MIC [20] was 0.1 µg/mL (≈ 0.245 µM). The MIC [21] was 0.4 µg/mL (≈ 0.98 µM), the MIC [22] was 0.4 µg/mL (≈ 0.98 µM) and the MIC [23] was > 50 µg/mL. The MIC [24] was > 50 µg/mL, the MIC [25] was > 50 µg/mL and the MIC [26] was > 50 µg/mL.
For CO[C@@]12[C@H](COC(N)=O)C3=C(C(=O)C(C)=C(N)C3=O)N1C[C@@H]1N[C@@H]12 [Mitomycin C, reference compound], the IC50 ([10]; 72 h) was 1.2 µg/mL (≈ 3.59 µM) and the “Inhibition of macromolecule synthesis” value [16] was “specific inhibition of DNA synthesis”.
For Cc1cc2c(c3oc(C4(C5CO5)CO4)cc(=O)c13)C(=O)c1c(O)cccc1C2=O (stereo not shown) [SF-2330], the Antibacterial activity [27] is given as “antibacterial activity”.
In the case of CCC(C)c1cc(=O)c2c(CC(=O)O)cc3c(c2o1)C(=O)c1c(O)cccc1C3=O (stereo not shown) [SS-43405D], the Antibacterial activity [27] is listed as “antibacterial activity”.
